Laboratory results published in patent US20250338851A1, “Boosted IPBC for Wet-State Bacterial Control” (Troy Technology II, Inc., priority 2021, published 2025).
Where “and” joins values, the source holds several entries; their conditions need not be identical. Identical values can stand only once. Residues, ends and D or L forms follow the SMILES beside them. *: point of attachment. βNA = c1ccc2cc(N*)ccc2c1

Legend:
Type in all cases: cell-based
[1] = system: Pseudomonas aeruginosa (ATCC #10145); test: Growth curves (OD600)
Experimental: To generate growth curves, overnight cultures of Pseudomonas aeruginosa (ATCC #10145) from Plate Count Agar were lifted and resuspended in dH2O and adjusted to OD600=0.01 with sterile Mueller Hinton Broth (MHB). This culture was distributed into wells of an uncovered 96-well plate with the indicated biocides. The OD600 was then measured initially and then every 30′ for 16 hours at 37° C. with constant double orbital shaking. Due to the opacity of the samples dosed with some test compounds, the curves were generated by background subtracting from wells containing sterile MHB and then subtracted from their initial (t=0) measurement.

[2] = system: Pseudomonas aeruginosa (ATCC #10145); test: NPN uptake assay (membrane permeability); details: 1% w/v solutions
Experimental: The NPN uptake assay was performed roughly as previously described. See Helander I. M., Mattila-Sandholm T., Fluorometric assessment of gram-negative bacterial permeabilization, J. Appl. Microbiol. […] Next, the cells were centrifuged (10,000 g, 5 minutes) washed twice with assay buffer (5 mM HEPES-KOH, 5 mM glucose, pH 7.2) and resuspended in assay buffer to OD600=1. 100 microliters of washed cells in assay buffer was then mixed with 100 microliters of assay buffer containing 20 μM NPN in a 96-well optical bottom black plate (Thermo). Two microliters of the test substances were then added, briefly mixed, and then placed in a plate reader to monitor fluorescence (excitation 350 nm, emission 420 nm) at one minute intervals for 10 minutes. Controls containing no cells or water-only were included in the assay. NPN uptake was calculated using the formula below at each time point and averaged over all time-points and three replicates.

[3] = system: bacterial consortium: Alcaligenes faecalis (ATCC #25094), Enterobacter aerogenes (ATCC #13048), Escherichia coli (ATCC #11229), Pseudomonas aeruginosa (ATCC …); test: Bacterial challenge testing (standard); details: paint challenge testing (Table A9)
Experimental: Bacterial and fungal challenge testing was performed following Troy's standard challenge test procedure SOP MI-07. […] Where indicated, additional bacterial organisms were added to the inoculum such that each organism in the inoculum provided equal CFU. […] Fungal consortia were prepared on Malt Agar slants and diluted to 10^6 spores/mL using a hemocytometer to count before use. Each mixture was prepared shortly before each inoculation. Inoculations were performed by adding 0.5 mL to 50 g of the indicated test sample, giving either ˜10^6 CFU/g of bacteria or ˜10^4 spores/g of fungi per challenge. Viability readings were performed at the indicated intervals following each challenge by applying a small amount of the test sample onto PCA (for bacteria) or Malt Agar (for fungus). Bacterial plates were then incubated at 32° C. for 3-5 days, and Malt Agar plates were incubated for 1 week at 28° C. before reading. Viability plates were evaluated with a semi-quantitative scale. This scale estimates the approximate CFU/g by visual assessment of the colony density along the streak lines. Readings are recorded as the average of two duplicate semi-quantitative readings from “0” to “4.” Samples were mixed before every viability reading and after every inoculation.
(§1) Challenge test scoring was done by the weighted sum of squares for each of the twelve data points collected for each test sample. The weighting was done proportional to the streak day, with day 1 weighted at 10%, day 2 weighted at 20%, and day 3 weighted at 70%. The sum of all 12 values is then taken and divided by the score of the unprotected sample to achieve the total growth score. The reported “weighted performance” score is 1 minus the growth score.

[4] = system: bacterial consortium: Alcaligenes faecalis, Enterobacter aerogenes, Escherichia coli, Pseudomonas aeruginosa, Staphylococcus aureus, Microbacterium …; test: Bacterial challenge testing (industrial strength); details: paint; 2.5% w/w (10,000 ppm); 7 days after challenge
Source text: Where industrial strength inoculations are indicated, bacterial challenge testing organisms were Alcaligenes faecalis (ATCC #25094), Enterobacter aerogenes (ATCC #13048), Escherichia coli (ATCC #11229), Pseudomonas aeruginosa (ATCC #10145), Staphylococcus aureus (ATCC #6538), Microbacterium paraoxydans (Troy Isolate), Burkholderia cenocepacia (Troy Isolate), Citrobacter werkmanii (Troy Isolate), and Acinetobacter sp. (Troy Isolate). All bacteria were blended from separate overnight cultures grown in Tryptic Soy Broth (TSB) and mixed at equal CFU via OD600 measurements, then diluted to OD600=7 (˜10^9 CFU/mL) to create the final bacterial consortium. Each mixture was prepared shortly before each inoculation. Inoculations were performed by adding […] to 50 g of the indicated test sample to give ˜10^7 CFU/g per inoculation. Viability readings were performed at the indicated intervals following each challenge by applying a small amount of the test sample onto PCA. Plates were then incubated at 32° C. for 3-5 days before being evaluated with a semi-quantitative scale. This scale estimates the approximate CFU/g by visual assessment of the colony density along the streak lines. Readings are recorded as the average of two duplicate semi-quantitative readings from “0” to “4.” Samples were mixed before every viability reading and after every inoculation.
as §1

[5] = system: Pseudomonas sp. Troy JZ103; test: Minimum inhibitory concentration testing (microbroth dilution) and synergy index; details: 96 well microbroth dilution, MHB, 24 hours of incubation
Experimental: (§2) MICs were determined via microbroth dilution using the following specific test parameters:
(§3) Biocide dilutions were performed in 2-fold increments for each assay.
(§4) Synergy index (SI) scores were calculated according to the mass action equation below: […]
(§5) S.I.[MIC[A]in-blend/MIC[A]alone]+[MIC[B]in-blend/MIC[B]alone]
(§6) Combinations of ingredients were determined to be synergistic (S.I.<0.5), additive (S.I.>0.5 to 1), indifferent (S.I.>1 to <2) or antagonistic (S.I.>2), as defined by EUCAST guidelines. See European Committee for Antimicrobial Susceptibility Testing (EUCAST) of the European Society of Clinical Microbiology and Infectious Diseases (ESCMID). EUCAST Definitive Document E.Def 1.2, May 2000: Terminology relating to methods for the determination of susceptibility of bacteria to antimicrobial agents, Clin. Microbiol. Infect. Off Publ. Eur. Soc. Clin. Microbiol. Infect. Dis. […] Microbiol.

E. aerogenes ATCC #13048 = test: as above; details: 96 well microbroth dilution, MHB, 24 hours of incubation
Experimental: as §2, §3, §4, §5, §6

[6] = system: Microbacterium sp. Troy JZ13; test: as above; details: 96 well microbroth dilution, MHB, 24 hours of incubation
Experimental: as §2, §3, §4, §5, §6

S. aureus ATCC #6538 = test: as above; details: 96 well microbroth dilution, MHB, 24 hours of incubation
Experimental: as §2, §3, §4, §5, §6

[7] = system: P. aeruginosa ATCC #10145; test: as above; details: 96 well microbroth dilution, MHB, 24 hours of incubation
Experimental: as §2, §3, §4, §5, §6

E. coli ATCC #11229 = test: as above; details: 96 well microbroth dilution, MHB, 24 hours of incubation
Experimental: as §2, §3, §4, §5, §6

[8] = system: Burkholderia sp. Troy JZ2; test: as above; details: 96 well microbroth dilution, MHB, 24 hours of incubation
Experimental: as §2
(§7) Necessary organism dilutions via OD600 were calculated based on OD600 of 1.0 being equivalent to 8×10^8 CFU/mL. Biocide dilutions were performed in 2-fold increments for each assay.
as §4, §5
(§8) Combinations of ingredients were determined to be synergistic (S.I.<0.5), additive (S.I.>0.5 to 1), indifferent (S.I.>1 to <2) or antagonistic (S.I.>2), as defined by EUCAST guidelines. See European Committee for Antimicrobial Susceptibility Testing (EUCAST) of the European Society of Clinical Microbiology and Infectious Diseases (ESCMID). EUCAST Definitive Document E.Def 1.2, May 2000: Terminology relating to methods for the determination of susceptibility of bacteria to antimicrobial agents, Clin. Microbiol. Infect. Off Publ. Eur. Soc. Clin. Microbiol. Infect. Dis. 6, 503-508 (2000); Helander I. M., Mattila-Sandholm T., Fluorometric assessment of gram-negative bacterial permeabilization, J. Appl. Microbiol. 88:213-219 (2000).

Bacillus sp. Troy JZ14 = test: as above; details: 96 well microbroth dilution, MHB, 24 hours of incubation
Experimental: as §2, §7, §4, §5, §8

[9] = system: Pseudomonas aeruginosa (ATCC #10145); test: Kill curve; details: 0.2%
Experimental: Overnight cultures of Pseudomonas aeruginosa (ATCC #10145) growing in Tryptic Soy Broth were diluted to OD600=0.7 in Mueller Hinton Broth containing the indicated level of test compound. Samples containing IPBC were dosed with Polyphase PW40 (40% IPBC). Samples containing ZnO were dosed from a 50% ZnO dispersion (“1678-54”). Time points were collected by adding 1 mL of the sample into 9 mL of Dey-Engley Neutralizing Broth and performing a serial dilution in 1× Butterfield's Phosphate Buffer. Counts were obtained from pour plates in Tryptic Soy Agar after overnight incubation at 35° C.

With `[Cl-].[Cl-].[Mg+2]` [MgCl2] the Pseudomonas growth ([1]; control, without PAβN (FIG. 1C)) was “no Pseudomonas inhibition”.
With `N=C(N)NCCC[C@H](NC(=O)[C@@H](N)Cc1ccccc1)C(=O)Nc1ccc2ccccc2c1` [PAβN, phenylalanine-arginine beta-napthylamide] (H-Phe-Arg-βNA) the “Impact on Pseudomonas growth” value ([1]; 0.125-0.5 mM PAβN alone, 16 hours at 37° C.) was “minimal impact”.
With `CC(C)C(=O)OCC(C)(C)C(O)C(C)C` (centres unmarked) [Texanol] the “Membrane disruption potential against Pseudomonas (NPN assay)” value [2] was “highest membrane disruption potential”.
With `CC(=O)OCC(COC(C)=O)OC(C)=O` [Triacetin] the “Improvement in the bacterial resistance of paint containing IPBC/ZnO” value [3] was “some improvement”.
With `[O]=[Zn]` [ZnO, zinc oxide] the “Kill of the inoculum” value [4] was “complete kill”, the MIC [5] was 3400 ppm and the MIC (E. aerogenes ATCC #13048) was 2400 ppm. The MIC [6] was 3206 ppm, the MIC (S. aureus ATCC #6538) was 250 ppm and the MIC [7] was no less than 2400 ppm. It also gave an MIC (E. coli ATCC #11229) of 2400 ppm, an MIC [8] of 2000 ppm and an MIC (Bacillus sp. Troy JZ14) of 3212 ppm. The “Kill curve CFU/mL” value ([9]; 0 hrs) was 5.40E+06 CFU/mL and 7.00E+06 CFU/mL, the “Kill curve CFU/mL” value ([9]; 2 hrs) was 7.10E+06 CFU/mL and 7.30E+06 CFU/mL and the “Kill curve CFU/mL” value ([9]; 24 hrs) was 1.33E+10 CFU/mL and 1.45E+10 CFU/mL. For the same molecule, the “Kill curve CFU/mL” value ([9]; 48 hrs) was 4.90E+09 CFU/mL and 3.80E+09 CFU/mL.
